Data set [1] relates to HUVEC cells (Human Umbilical Vein Endothelial Cells). Briefly: In vitro neo-angiogenesis: VEGF-dependent tubule formation on matrigel. In kind it is cell-based. The procedure:
The in vitro neo-angiogenesis tests were conducted by exploiting the ability of endothelial cells to form, in the presence of pro-angiogenic factors, cords which extend to form a network of microtubules on a layer of polymerised matrigel. For this type of assay, 5×10^4 HUVEC cells (Human Umbilical Vein Endothelial Cells) per well were plated in 24-well plates, in which 300 μl of matrigel was left to polymerise in the presence of 40 ng/ml of VEGF (Vascular Endothelial Growth Factor), used as pro-angiogenic agent, and the peptides indicated, at different concentrations. Tubule formation was evaluated after 18 hours' incubation at 37° C. in 5% CO2, by counting the number of tubular structures in at least 5 fields, chosen at random, with an inverted microscope. The effect of the peptides on VEGF-dependent tubule-forming activity is calculated as a percentage of the number of tubular structures counted in the presence of VEGF (taken as 100%). The data (Table 9) represent the average of two experiments conducted in duplicate. The antagonistic effect of PICM1 and PICM57 on neo-angiogenesis in vitro is dose-dependent. This effect begins at concentrations of aM and reaches the peak action at a concentration of pM (20% of the number of tubular structures counted); 50% of the maximum effect is reached at concentrations of fM. The anti-angiogenic effect exerted by 50 nM of endostatin and the low inhibitory effect exerted by metastin[45-54] are shown by way of comparison.

The nature of data set [2]: in vivo. Conditions: rat.
Data set [3] can be described thus: in vivo. The settings on record: mouse.
Another data set relates to rat. The settings on record: acute.
Another data set deals with mouse. The settings on record: acute.
Data set [4] deals with murine melanoma B16 cells. Conditions: Ohtaki et al. 2001; cited from earlier work.
In data set [5] the test system is human fibrosarcoma HT1080 cells in CD1 nude mice. Briefly: Anti-metastatic effect in vivo: pulmonary metastasis of HT1080 cells injected into the caudal vein. Conditions: 3 mg/Kg every 48 h. The procedure:
The anti-metastatic power of PICM1 was evaluated on an animal model. 2×10^6 human fibrosarcoma HT1080 cells, which cause pulmonary metastasis in the experimental model (Schweinitz A, et al., J. Biol. Chem. 279:33613, 2004), were suspended in saline solution and injected into the caudal vein of twenty 7-week-old CD1 nude mice. 24 hours after the inoculation of the tumour cells, groups of 10 animals were treated with a slow injection of 3 mg/Kg of PICM1, dissolved in 100 μl of saline solution, every 48 h, with the animal immobilised. The 10 control animals received the same injection treatment, but with the saline solution only. Each animal was weighed and inspected for dyspnoea every day. […] All the treated and control animals were sacrificed, and an autopsy was conducted. The lungs, liver, kidneys, spleen and heart were subjected to macroscopic and microscopic analysis.

The subject of data set [6] is human fibrosarcoma HT1080 cells. Briefly: Directional migration towards 10% FBS in Boyden chamber. The class given is cell-based. On the procedure: The effect of PICM57 described in example 3 on the cell migration of human fibrosarcoma HT1080 cells was tested. A Boyden chamber equipped with polycarbonate filters, having pores with a diameter of 8 μm (Nucleopore), free of polyvinylpyrrolidone and coated with 5 μg/ml of vitronectin (Promega), was used, as reported in the literature (Carriero et al., Cancer Res. 59, 5307, 1999). 3×10^4 cells, in serum-free DMEM (Dulbecco Modified Eagle Medium), were deposited in the upper compartment of the Boyden chamber. The lower chamber was packed with DMEM containing 10% FBS (Foetal Bovine Serum) as a source of chemotactics, in the presence of increasing concentrations of PICM57. The cells were incubated for 4 h at 37° C. in humidified air containing 5% CO2. After incubation, the cells adhering to the upper surface of the filter were mechanically removed, and the migrated cells adhering to the lower surface of the filter were fixed in ethanol, stained with haematoxylin, and counted at 200× in 10 fields/filter chosen at random. The directional migration in response to FBS in the absence of PICM57 was taken as 100% and the effect of PICM57 on cell migration was evaluated in percentage terms. The data represent the average of three independent experiments conducted in duplicate. The antagonistic effect of PICM57 on migration of HT1080 cells towards FBS is dose-dependent (Table 2). It begins at concentrations of 1 aM, reaches 50% of its maximum value at concentrations of 1 fM, and reaches the maximum effect at concentrations of 10 fM (66% of inhibition).
The mobility induced by FBS in the presence of Metastin[45-54] was evaluated under the same experimental conditions (Table 3). […]

Data set [7] deals with Cell lines of human or murine origin, derived from various tissues. Briefly: Directional migration towards 10% FBS, all the cell lines tested. The class given is cell-based. The settings on record: 100 pM PICM1. On the procedure: Cell lines of human or murine origin, derived from various tissues, were subjected to in vitro directional migration tests employing Boyden chambers as described in example 4, and using 10% FBS as chemotactic source, in the presence/absence of 100 pM PICM1. Directional migration in response to FBS in the absence of PICM1 was taken as 100%, and the effect of PICM1 on cell migration was evaluated as a percentage of said value. The data represent the average of two independent experiments conducted in duplicate. In all the cell lines tested, an inhibiting effect of PICM1 on cell migration was observed (Table 4). Although the extent of the inhibition differs between the cell lines used, it was never less than 50%, and was also observed in murine melanoma B16 cells, which are unresponsive to Metastin (Ohtaki, T., et al. (2001) Nature 411, 613-617).

The test system of data set [8] is human fibrosarcoma HT1080 cells. Briefly: In vitro cell invasion through matrigel towards 10% FBS (Boyden chamber). In kind it is cell-based. The procedure:
The in vitro cell invasion tests were conducted with Boyden chambers, using polyvinylpyrrolidone free filters, having pores with a diameter of 8 μm (Nucleopore), coated with 70 μg/filter of matrigel and DMEM containing 10% FBS as chemoattractant (Silvestri et al. Int. J. Cancer 102, 562-571, 2002). Human fibrosarcoma HT1080 cells (2×10^5 cells/sample) were deposited in the upper compartment of the chamber in a serum-free culture medium. The lower compartment of the chamber contained DMEM with the addition of 10% FBS as chemotactic source, and the peptides to be assayed, tested at the concentration indicated. The chambers, thus assembled, were placed at 37° C. in a humidified environment containing 5% CO2. After 18 hrs, the cells which had crossed the matrigel and adhered to the lower surface of the filters were fixed, stained and counted. The data represent the average of two independent experiments conducted in duplicate. The results, set out in Table 8, are expressed as the percentage of cells that invade the matrigel in the presence of FBS, but in the absence of peptide (100%). The inhibiting effect of PICM1 and PICM57 on the invasiveness of HT1080 cells is dose-dependent.

A further data set deals with T1, FPR (Homo sapiens, UniProt P21462).
T1 sequence (P21462 1-350): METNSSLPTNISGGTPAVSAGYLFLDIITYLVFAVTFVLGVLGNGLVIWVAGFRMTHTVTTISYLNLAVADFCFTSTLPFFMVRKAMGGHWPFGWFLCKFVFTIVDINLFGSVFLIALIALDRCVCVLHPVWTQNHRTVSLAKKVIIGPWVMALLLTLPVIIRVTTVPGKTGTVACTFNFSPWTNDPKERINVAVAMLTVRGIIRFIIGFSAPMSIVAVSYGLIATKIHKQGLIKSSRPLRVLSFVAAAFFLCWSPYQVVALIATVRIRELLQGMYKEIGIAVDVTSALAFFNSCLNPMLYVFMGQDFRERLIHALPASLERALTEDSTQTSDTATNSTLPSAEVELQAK
The settings on record: cells pre-incubated with 10 μM peptide.

[9] abbreviates: injection, sacrifice after 22 days.
Where [10] appears, read: 10 pM peptide, 10% FBS alone = 100%.
[11] abbreviates: 10 nM peptide, 10% FBS alone = 100%.
[12] abbreviates: 1 aM peptide, migration toward 10% FBS alone = 100%.
Where [13] appears, read: 10 aM peptide, 10% FBS alone = 100%.
[14] abbreviates: 10 fM peptide, 10% FBS alone = 100%.

Square brackets hold non-standard residues; d marks the D form. Peptide text beside a SMILES is read from it. ξ: configuration not given here. ξαMeF = CC(N)(Cc1ccccc1)C(=O)O; Aib = CC(C)(N)C(=O)O

As for Endostatin [reference compound], the “VEGF-dependent tubule-forming activity (%)” value in data set [1] (10 nM peptide) is reported as 30%.
For the compound `CC(=O)N[C@@H](CCCNC(=N)N)C(=O)NC(C)(C)C(=O)N[C@@H](CCCNC(=N)N)C(=O)NC(C)(Cc1ccccc1)C(N)=O` (stereo partly drawn) [PICM57, Ac-Arg-Aib-Arg-α(Me)Phe-NH2] (Ac-R[Aib]R[ξαMeF]-NH2), the LD50 is 65 mg/kg in the data set “in vivo [2]” and 30 mg/kg in “in vivo [3]”. Also, the “dose with all animals alive” value worked out at 58 mg/kg in the data set with rat and 28 mg/kg in the data set with mouse. The “dose with all animals dead” value with rat turned out to be 70 mg/kg; with mouse, 32 mg/kg.
Consider Metastin, for which the “responsiveness of B16 cells” value in [4] is “unresponsive”.
For the compound `CC(=O)N[C@@H](CCCNC(=N)N)C(=O)N[C@@H](CCC(=O)O)C(=O)N[C@@H](CCCNC(=N)N)C(=O)N[C@@H](Cc1ccccc1)C(N)=O` [PICM1, Ac-Arg-Glu-Arg-Phe-NH2] (Ac-RERF-NH2), the “concentration at which 50% of the maximum effect on neo-angiogenesis is reached” value in data set [1] is on record as “fM”. Besides, the “VEGF-dependent tubule-forming activity (%)” value in data set [1] (10 pM peptide) turned out to be 30%; in data set [1] (10 nM peptide), 22%; in [1] (1 aM peptide, 40 ng/ml VEGF = 100%), 104%; in [1] (10 aM peptide), 77%; in [1] (10 fM peptide), 65%. Besides, the “tubular structures at peak action (% of VEGF-only control)” value in data set [1] (peak action at a concentration of pM) was found to be 20%. Besides, the “extensive sub-pleural neoformations on macroscopic analysis of the lungs” value in data set [5] (setting [9]) is recorded as “not observed in the treated animals”. For the same compound, the “pulmonary metastasis on microscopic observation” value in data set [5] (setting [9]) is listed as “did not exhibit the presence of metastasis”. Further, in data set [5] (autopsy), the “histo-morphological alterations of lungs, liver, kidneys, spleen and heart” value was “None of the organs examined, of the controlled or treated animals, presented any histo-morphological alterations, with the exception of the lungs”. Further, the “Cell Migration towards 10% FBS (%)” value in [6] (setting [10]) was found to be 46%; in [6] (100 pM peptide, 10% FBS alone = 100%), 34%; in data set [6] (setting [11]), 35%; in data set [6] (setting [12]), 99%; in data set [6] (setting [13]) it was 70%; in [6] (setting [14]), 56%. Further, in [7], the “extent of the inhibition of cell migration” value was no less than 50%. Moreover, the “Cell invasion towards 10% FBS (%)” value in [8] (10 pM peptide) was determined as 55%; in [8] (10 nM peptide), 44%; in data set [8] (1 aM peptide, FBS without peptide = 100%) it was 100%; in [8] (10 aM peptide) it was 101%; in data set [8] (10 fM peptide), 62%.
Consider Metastin[45-54] [reference compound], for which the “VEGF-dependent tubule-forming activity (%)” value in data set [1] (10 pM peptide) is listed as 63%; in data set [1] (10 nM peptide), 65%; in data set [1] (10 fM peptide) it was 90%. In the data set with FPR, the “reduction of binding of fluorescinated formyl-Nle-Leu-Phe-Nle-Tyr-Lys to the cell surface” value is “does not modify”. The “Cell Migration towards 10% FBS (%)” value in data set [6] (setting [10]) is reported as 53%; in [6] (setting [11]), 56%; in data set [6] (setting [12]), 100%; in data set [6] (setting [13]) it was 83%; in data set [6] (setting [14]), 73%. The “concentration needed for comparable inhibition of migration, times greater than PICM57” value in [6] (10 nM Metastin[45-54] vs. 10 fM PICM57) was 1,000 times.

The record behind these values is US8354374B2, “Peptides having pharmacological activity for treating disorders associated with altered cell migration, such as cancer” (Pharmaphelix S.R.L., priority 2006, dated 2013).
